Tests used:
[1] = test system: SKOV3 human ovarian cancer cells; assay: Disruption of SKOV3 cell adhesion in confluent cultures; format: cell-based; parameters: key to Peptide Disrupts Adhesion of SKOV3 cells: +: yes; −: no; settings: for Peptide Disrupts Adhesion of SKOV3 cells: Table 8 summary; for effect on SKOV3 cell adhesion: confluent cultures, concentration not given
Experimental: SKOV3 human ovarian cancer cells (kind gift from Dr. Riaz Farookhi, McGill University, Montreal, Quebec) were cultured in MEM containing 1.25 μg/ml Fungizone, 100 U/ml penicillin 100 μg/ml streptomycin, 0.1 mM nonessential amino acids, 2 mM L-glutamine, 10 μg/ml ml gentamicin and 10% fetal bovine serum. All culture reagents were purchased from GIBCO (Burlington, ON). To obtain confluent cell cultures, 100,000 cells per well were plated onto a 4 well slide (NalgeNunc, Naperville, Ill.) and incubated for 24 h at 37° C., in a humidified atmosphere (5% CO2).
(§1) Depending on their solubility, peptides were dissolved directly in culture medium and added to confluent cell cultures at the indicated concentration, or they were dissolved in dimethylformamide (DMF) to obtain a 100× concentrated solution or in water to obtain a 10× concentrated solution. The peptide stock solutions were further diluted with culture medium to a final working concentration and added to confluent cell cultures. Culture medium containing 1% solvent was used as a control. At the end of the treatment, cells were either examined by phase contrast microscopy, or fixed with 4% paraformaldehyde in PBS and stained with hematoxylin prior to light microscopic examination.
Confluent cultures of SKOV3 cells were incubated in the presence of individual peptides.

[2] = biological target: T1, N-cadherin/Fc chimeric protein (Homo sapiens, UniProt P19022); assay: Table 8 summary: peptide binds to N-cad/Fc; format: binding; parameters: key: +: yes; −: no
T1 construct: extracellular domain of human N-cadherin (Asp160-Ala724); purchased R&D Systems, Minneapolis, Minn
T1 sequence (P19022 160-724): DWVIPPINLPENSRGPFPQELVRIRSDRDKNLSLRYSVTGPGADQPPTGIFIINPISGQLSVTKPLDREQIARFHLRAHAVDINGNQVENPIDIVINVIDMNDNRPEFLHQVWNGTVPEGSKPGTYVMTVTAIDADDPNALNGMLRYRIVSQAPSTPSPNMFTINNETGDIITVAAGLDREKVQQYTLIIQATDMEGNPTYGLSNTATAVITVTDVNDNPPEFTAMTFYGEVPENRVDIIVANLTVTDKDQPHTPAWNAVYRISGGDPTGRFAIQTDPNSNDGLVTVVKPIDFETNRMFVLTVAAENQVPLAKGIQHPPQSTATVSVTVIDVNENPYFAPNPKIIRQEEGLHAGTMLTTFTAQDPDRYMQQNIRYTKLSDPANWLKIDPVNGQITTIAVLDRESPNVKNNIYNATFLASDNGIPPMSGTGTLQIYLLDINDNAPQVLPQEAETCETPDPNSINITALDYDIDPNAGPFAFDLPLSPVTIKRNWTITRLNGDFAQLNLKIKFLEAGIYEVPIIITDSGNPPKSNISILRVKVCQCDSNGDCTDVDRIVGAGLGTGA

[3] = biological target: T2, VE-cadherin/Fc chimeric protein (Homo sapiens, UniProt P33151); assay: Surface plasma resonance (Biacore) analysis on VE-cadherin/Fc; format: binding; settings: 100-1.56 uM
T2 construct: purchased R&D Systems, Minneapolis, Minn
Experimental: The binding of representative peptide modulating agents to either N- or VE-cadherin/Fc chimeric proteins was assessed using a BIAcore X™ Biosensor (Pharmacia Ltd., Sweden). Goat anti-human IgG recognizing N- and VE-cadherin/Fc chimeric proteins (R&D Systems, Minneapolis, Minn.) was immobilized on a CM5 sensor chip (Biacore S51) using standard amine-coupling method at 25° C. HBS-P buffer (10 mM HEPES, 0.15 M NaCl, 0.005% p20, pH 7.4) was used as the running buffer. The carboxymethyl dextran surface was activated with a 7 min injection of a 1:1 ratio of 0.4 M EDC and 0.1 M NHS. The goat anti-human IgG (Caltag Lab.) was coupled to the surface with a 7 min injection diluted in 10 mM sodium acetate, pH 5.0 to a final concentration 80 ug/ml. Remaining activated groups were blocked with a 7 min injection of 1 M ethanolamine, pH 8.5. N- and VE-cadherin/Fc chimeric proteins were dissolved in buffer containing 50 mM Tris HCl, 150 mM NaCl, and 1.2 mM CaCl2 pH 7.5 to a concentration of 0.2 μM and captured on spots 1 and 2 at a flow rate of 30 μl/min for 30 min with resulting density 927 RU for N-cadherin/Fc chimeric protein and 1008 RU for VE-cadherin/Fc chimeric protein. […]

[4] = test system: Human Umbilical Vein Endothelial Cells (HUVEC); assay: Disruption of HUVEC adhesion; format: cell-based; parameters: key to Peptide Disrupts Adhesion of HUVEC: +: yes; −: no; settings: for Peptide Disrupts Adhesion of HUVEC: Table 8 summary
Experimental: (§2) Human Umbilical Vein Endothelial Cells (HUVEC) and Human Dermal Microvascular Endothelial Cells (HMVEC-d) were purchased from Cambrex Bio Science Walkersville, Inc. Clonetics EGM-2 and EGM-2-MV Bulletkits (Cambrex Bio Science Walkersville, Inc) were used to culture HUVEC and HMVEC-d respectively. Cells (40,000 per well) were plated onto a 4 well slide (NalgeNunc, Naperville, Ill.) and incubated at 37° C., in a humidified atmosphere (5% CO2).
as §1

[5] = test system: MCF-7 human breast cancer cells; assay: Disruption of MCF-7 cell adhesion; format: cell-based; parameters: key to Peptide Disrupts Adhesion of MCF-7 cells: +: yes; −: no
Experimental: MCF-7 human breast cancer cells (kind gift from Dr. Riaz Farookhi, McGill University, Montreal, Quebec) were cultured in the same medium as SKOV3 but supplemented with 1 mM sodium pyruvate.
as §1

[6] = biological target: T3, E-cadherin/Fc chimeric protein (Homo sapiens, UniProt P12830); assay: Table 8 summary: peptide binds to E-cad/Fc; format: binding; parameters: key: +: yes; −: no
T3 construct: extracellular domain of human E-cadherin (Asp155-Ile707); purchased R&D Systems, Minneapolis, Minn
T3 sequence (P12830 155-707): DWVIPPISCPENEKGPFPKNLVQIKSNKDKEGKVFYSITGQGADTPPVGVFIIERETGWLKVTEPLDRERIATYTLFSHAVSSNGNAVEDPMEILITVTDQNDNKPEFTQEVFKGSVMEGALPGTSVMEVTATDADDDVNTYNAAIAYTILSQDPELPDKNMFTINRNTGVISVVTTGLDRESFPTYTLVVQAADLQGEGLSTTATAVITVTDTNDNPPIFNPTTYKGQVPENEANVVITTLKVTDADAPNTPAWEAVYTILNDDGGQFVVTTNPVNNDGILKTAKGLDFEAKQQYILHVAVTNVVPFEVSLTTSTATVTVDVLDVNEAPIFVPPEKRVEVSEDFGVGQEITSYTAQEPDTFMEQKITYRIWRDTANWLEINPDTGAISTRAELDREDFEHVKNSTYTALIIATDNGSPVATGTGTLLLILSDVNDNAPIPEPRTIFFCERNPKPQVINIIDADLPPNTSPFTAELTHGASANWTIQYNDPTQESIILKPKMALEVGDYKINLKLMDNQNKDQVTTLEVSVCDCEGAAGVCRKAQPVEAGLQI

[7] = test system: Human Dermal Microvascular Endothelial Cells (HMVEC-d); assay: Disruption of HMVEC adhesion; format: cell-based; parameters: key to Peptide Disrupts Adhesion of HMVEC: +: yes; −: no; settings: for Peptide Disrupts Adhesion of HMVEC: Table 8 summary
Experimental: as §2, §1

[8] = biological target: T1, N-cadherin/Fc chimeric protein; assay: Surface plasma resonance (Biacore) analysis on N-cadherin/Fc; format: binding
Experimental: The binding of representative peptide modulating agents to either N- or VE-cadherin/Fc chimeric proteins was assessed using a BIAcore X™ Biosensor (Pharmacia Ltd., Sweden). Goat anti-human IgG recognizing N- and VE-cadherin/Fc chimeric proteins (R&D Systems, Minneapolis, Minn.) was immobilized on a CM5 sensor chip (Biacore S51) using standard amine-coupling method at 25° C. HBS-P buffer (10 mM HEPES, 0.15 M NaCl, 0.005% p20, pH 7.4) was used as the running buffer. The carboxymethyl dextran surface was activated with a 7 min injection of a 1:1 ratio of 0.4 M EDC and 0.1 M NHS. The goat anti-human IgG (Caltag Lab.) was coupled to the surface with a 7 min injection diluted in 10 mM sodium acetate, pH 5.0 to a final concentration 80 ug/ml. Remaining activated groups were blocked with a 7 min injection of 1 M ethanolamine, pH 8.5. N- and VE-cadherin/Fc chimeric proteins were dissolved in buffer containing 50 mM Tris HCl, 150 mM NaCl, and 1.2 mM CaCl2 pH 7.5 to a concentration of 0.2 μM and captured on spots 1 and 2 at a flow rate of 30 μl/min for 30 min with resulting density 927 RU for N-cadherin/Fc chimeric protein and 1008 RU for VE-cadherin/Fc chimeric protein.
The linear peptide H-SWTLYTPSGQSK-NH2 (SEQ ID NO: 16) and the control linear peptide H-SRTLYTPSGQSK-NH2 (SEQ ID NO: 58) were passed over surfaces coated with captured N- and VE-cadherin/Fc chimeric proteins in running buffer containing 50 mM Tris-HCl, 150 mM NaCl, and 1.2 mM CaCl2, pH 7.5 at concentrations ranging from 100-1.56 uM. The experiment was performed at a flow rate 90 ul/min at 25° C. […] All responses were referenced for reference surface and blank injections of running buffer.

[9] = 1 mg/ml medium, up to 1 h incubation

T2 sequence (P33151 with tags, fused parts or gaps limits assumed, species assumed): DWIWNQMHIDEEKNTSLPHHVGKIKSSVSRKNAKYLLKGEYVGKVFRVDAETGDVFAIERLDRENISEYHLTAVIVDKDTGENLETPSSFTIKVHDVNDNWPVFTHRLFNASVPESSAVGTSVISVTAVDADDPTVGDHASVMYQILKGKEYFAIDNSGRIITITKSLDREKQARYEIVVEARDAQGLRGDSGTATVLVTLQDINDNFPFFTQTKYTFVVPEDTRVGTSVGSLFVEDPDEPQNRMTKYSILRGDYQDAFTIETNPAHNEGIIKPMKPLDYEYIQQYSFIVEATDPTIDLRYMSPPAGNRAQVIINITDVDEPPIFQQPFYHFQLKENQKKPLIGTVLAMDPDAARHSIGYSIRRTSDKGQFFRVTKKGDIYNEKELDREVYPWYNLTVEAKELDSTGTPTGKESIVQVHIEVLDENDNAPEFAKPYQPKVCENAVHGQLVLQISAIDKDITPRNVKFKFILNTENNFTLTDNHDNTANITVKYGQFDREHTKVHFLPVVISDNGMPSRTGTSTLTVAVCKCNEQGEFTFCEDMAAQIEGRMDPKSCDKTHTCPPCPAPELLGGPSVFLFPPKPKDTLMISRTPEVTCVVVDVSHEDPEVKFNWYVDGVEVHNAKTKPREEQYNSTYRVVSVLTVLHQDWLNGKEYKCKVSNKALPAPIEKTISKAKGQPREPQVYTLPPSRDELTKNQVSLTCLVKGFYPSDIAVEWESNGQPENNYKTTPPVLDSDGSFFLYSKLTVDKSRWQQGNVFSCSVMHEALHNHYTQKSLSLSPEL

H-SWTLYTPSGQSK-NH2 [H-SWTLYTPSGQSK-NH2]
Peptide Disrupts Adhesion of SKOV3 cells [1]: +
effect on SKOV3 cell adhesion [1]: disrupted SKOV3 cell adhesion
Peptide Binds to N-cad/Fc [2]: +
binding to VE-cadherin/Fc chimeric protein [3]: did not bind
effect on HUVEC adhesion ([4]; 0.062 mg/ml, 1 h incubation): moderate activity
incubation time after which HUVEC adhesion was disrupted ([4]; 1 mg/ml medium): 5 min
incubation time of maximum effect on HUVEC adhesion ([4]; 1 mg/ml medium): 1 h
effect on HUVEC adhesion [4, 9]: disrupted HUVEC adhesion
Peptide Disrupts Adhesion of HUVEC [4]: +
peptide concentrations disrupting HUVEC adhesion ([4]; after 1 h incubation, dose-dependent): ≥ 0.125 mg/mL
Peptide Disrupts Adhesion of MCF-7 cells ([5]; Table 8 summary): −
effect on MCF-7 cell adhesion ([5]; concentration not given): did not affect MCF-7 cell adhesion
Peptide Binds to E-cad/Fc [6]: −
effect on HMVEC adhesion ([7]; 0.062 mg/ml): disrupted
effect on HMVEC adhesion ([7]; 0.125 mg/ml): more pronounced effects
effect on HMVEC adhesion ([7]; 0.5 mg/ml and higher): still stronger effects
Peptide Disrupts Adhesion of HMVEC [7]: +
Kd ([8]; 25° C., 1.2 mM CaCl2): 66 µM
kd ([8]; 25° C., 1.2 mM CaCl2): 0.407(8) s^−1
kon ([8]; pH 7.5, 25° C., 1.2 mM CaCl2, read-out: ka): 6100 M⁻¹ s⁻¹

H-SRTLYTPSGQSK-NH2 [reference compound]
Peptide Disrupts Adhesion of SKOV3 cells [1]: −
effect on SKOV3 cell adhesion [1]: had no effect
Peptide Binds to N-cad/Fc [2]: −
binding to VE-cadherin/Fc chimeric protein [3]: did not bind
effect on HUVEC adhesion [4, 9]: had no biological activity
Peptide Disrupts Adhesion of HUVEC [4]: −
Peptide Disrupts Adhesion of HMVEC [7]: −
effect on HMVEC adhesion ([7]; highest concentration of 1 mg/ml): had no biological activity
binding to N-cadherin/Fc chimeric protein ([8]; 100-1.56 uM): did not bind

— patent publication US8603986B2, “Compounds and methods for modulating cadherin-mediated processes” (McGill University, priority 2005, dated 2013)
